In US10239869B2, “Sulfonamide compounds as voltage-gated sodium channel modulators” (LUPIN LIMITED, priority 2015, dated 2019):

How the values were obtained:
Nav 1.5 = Nav 1.5 (Homo sapiens (Human), UniProt Q14524); assay: Inhibition of sodium channels, Red Membrane Potential Dye FLIPR assay, veratridine depolarization; format: cell-based; conditions: HEK-293 cells overexpressing the channel; for IC50: read-out: Nav1.5 IC50 (bound given in μM)
Nav 1.7 = Nav 1.7 (Homo sapiens (Human), UniProt Q15858); assay: as above; format: cell-based; conditions: HEK-293 cells overexpressing the channel; read-out: Nav1.7 IC50
Sequence of Nav 1.7 (Q15858 whole entry): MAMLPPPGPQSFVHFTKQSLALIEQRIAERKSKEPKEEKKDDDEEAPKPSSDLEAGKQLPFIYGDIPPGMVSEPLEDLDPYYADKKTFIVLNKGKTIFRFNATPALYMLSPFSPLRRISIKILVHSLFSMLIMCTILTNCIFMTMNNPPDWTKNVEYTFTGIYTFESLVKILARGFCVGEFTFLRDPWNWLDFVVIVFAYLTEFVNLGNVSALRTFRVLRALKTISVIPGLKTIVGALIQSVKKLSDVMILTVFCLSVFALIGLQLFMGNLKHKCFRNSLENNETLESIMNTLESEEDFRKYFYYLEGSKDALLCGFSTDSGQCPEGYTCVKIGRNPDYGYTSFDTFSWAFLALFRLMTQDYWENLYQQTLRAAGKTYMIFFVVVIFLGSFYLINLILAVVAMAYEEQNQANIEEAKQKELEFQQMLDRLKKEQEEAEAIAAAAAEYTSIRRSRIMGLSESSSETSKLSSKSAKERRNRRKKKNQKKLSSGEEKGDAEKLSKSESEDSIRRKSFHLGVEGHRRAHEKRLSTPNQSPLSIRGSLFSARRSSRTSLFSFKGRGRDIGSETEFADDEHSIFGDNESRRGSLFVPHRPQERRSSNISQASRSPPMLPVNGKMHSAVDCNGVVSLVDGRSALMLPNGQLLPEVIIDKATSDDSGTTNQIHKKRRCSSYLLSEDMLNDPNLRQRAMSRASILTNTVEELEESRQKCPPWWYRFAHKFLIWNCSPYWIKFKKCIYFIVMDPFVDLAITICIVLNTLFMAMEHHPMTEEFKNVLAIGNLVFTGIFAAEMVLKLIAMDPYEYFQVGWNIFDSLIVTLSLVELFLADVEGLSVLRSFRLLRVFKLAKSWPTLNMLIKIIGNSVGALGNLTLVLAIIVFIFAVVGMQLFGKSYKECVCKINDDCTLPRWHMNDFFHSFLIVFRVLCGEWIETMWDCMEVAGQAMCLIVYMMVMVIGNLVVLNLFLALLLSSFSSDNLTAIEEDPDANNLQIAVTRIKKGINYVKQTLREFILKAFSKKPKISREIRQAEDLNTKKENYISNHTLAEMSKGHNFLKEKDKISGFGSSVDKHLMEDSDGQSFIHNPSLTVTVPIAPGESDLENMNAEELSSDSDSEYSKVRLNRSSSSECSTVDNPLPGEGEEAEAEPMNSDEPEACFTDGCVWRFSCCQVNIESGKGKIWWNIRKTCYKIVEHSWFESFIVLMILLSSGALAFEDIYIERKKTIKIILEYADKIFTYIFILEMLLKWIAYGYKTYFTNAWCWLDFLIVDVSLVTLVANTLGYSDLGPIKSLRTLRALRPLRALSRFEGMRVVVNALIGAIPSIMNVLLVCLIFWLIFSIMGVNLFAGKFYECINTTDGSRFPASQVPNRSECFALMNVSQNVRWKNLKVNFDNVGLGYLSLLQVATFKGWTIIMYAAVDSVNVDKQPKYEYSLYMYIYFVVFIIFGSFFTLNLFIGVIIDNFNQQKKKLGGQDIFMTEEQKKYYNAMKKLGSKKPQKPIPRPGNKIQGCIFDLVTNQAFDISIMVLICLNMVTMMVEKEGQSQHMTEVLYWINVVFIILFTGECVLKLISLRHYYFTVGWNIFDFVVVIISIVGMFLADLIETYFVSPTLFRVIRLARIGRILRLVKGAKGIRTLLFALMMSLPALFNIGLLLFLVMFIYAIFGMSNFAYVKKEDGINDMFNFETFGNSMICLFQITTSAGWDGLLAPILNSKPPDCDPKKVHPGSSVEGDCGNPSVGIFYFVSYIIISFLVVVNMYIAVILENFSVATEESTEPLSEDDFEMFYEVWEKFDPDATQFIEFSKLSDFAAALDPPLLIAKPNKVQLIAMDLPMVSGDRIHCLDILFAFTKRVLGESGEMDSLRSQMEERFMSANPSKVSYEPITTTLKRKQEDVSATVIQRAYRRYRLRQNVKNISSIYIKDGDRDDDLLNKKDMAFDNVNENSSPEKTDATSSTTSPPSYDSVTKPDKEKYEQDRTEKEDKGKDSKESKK

Sequence of Nav 1.5 (Q14524 whole entry): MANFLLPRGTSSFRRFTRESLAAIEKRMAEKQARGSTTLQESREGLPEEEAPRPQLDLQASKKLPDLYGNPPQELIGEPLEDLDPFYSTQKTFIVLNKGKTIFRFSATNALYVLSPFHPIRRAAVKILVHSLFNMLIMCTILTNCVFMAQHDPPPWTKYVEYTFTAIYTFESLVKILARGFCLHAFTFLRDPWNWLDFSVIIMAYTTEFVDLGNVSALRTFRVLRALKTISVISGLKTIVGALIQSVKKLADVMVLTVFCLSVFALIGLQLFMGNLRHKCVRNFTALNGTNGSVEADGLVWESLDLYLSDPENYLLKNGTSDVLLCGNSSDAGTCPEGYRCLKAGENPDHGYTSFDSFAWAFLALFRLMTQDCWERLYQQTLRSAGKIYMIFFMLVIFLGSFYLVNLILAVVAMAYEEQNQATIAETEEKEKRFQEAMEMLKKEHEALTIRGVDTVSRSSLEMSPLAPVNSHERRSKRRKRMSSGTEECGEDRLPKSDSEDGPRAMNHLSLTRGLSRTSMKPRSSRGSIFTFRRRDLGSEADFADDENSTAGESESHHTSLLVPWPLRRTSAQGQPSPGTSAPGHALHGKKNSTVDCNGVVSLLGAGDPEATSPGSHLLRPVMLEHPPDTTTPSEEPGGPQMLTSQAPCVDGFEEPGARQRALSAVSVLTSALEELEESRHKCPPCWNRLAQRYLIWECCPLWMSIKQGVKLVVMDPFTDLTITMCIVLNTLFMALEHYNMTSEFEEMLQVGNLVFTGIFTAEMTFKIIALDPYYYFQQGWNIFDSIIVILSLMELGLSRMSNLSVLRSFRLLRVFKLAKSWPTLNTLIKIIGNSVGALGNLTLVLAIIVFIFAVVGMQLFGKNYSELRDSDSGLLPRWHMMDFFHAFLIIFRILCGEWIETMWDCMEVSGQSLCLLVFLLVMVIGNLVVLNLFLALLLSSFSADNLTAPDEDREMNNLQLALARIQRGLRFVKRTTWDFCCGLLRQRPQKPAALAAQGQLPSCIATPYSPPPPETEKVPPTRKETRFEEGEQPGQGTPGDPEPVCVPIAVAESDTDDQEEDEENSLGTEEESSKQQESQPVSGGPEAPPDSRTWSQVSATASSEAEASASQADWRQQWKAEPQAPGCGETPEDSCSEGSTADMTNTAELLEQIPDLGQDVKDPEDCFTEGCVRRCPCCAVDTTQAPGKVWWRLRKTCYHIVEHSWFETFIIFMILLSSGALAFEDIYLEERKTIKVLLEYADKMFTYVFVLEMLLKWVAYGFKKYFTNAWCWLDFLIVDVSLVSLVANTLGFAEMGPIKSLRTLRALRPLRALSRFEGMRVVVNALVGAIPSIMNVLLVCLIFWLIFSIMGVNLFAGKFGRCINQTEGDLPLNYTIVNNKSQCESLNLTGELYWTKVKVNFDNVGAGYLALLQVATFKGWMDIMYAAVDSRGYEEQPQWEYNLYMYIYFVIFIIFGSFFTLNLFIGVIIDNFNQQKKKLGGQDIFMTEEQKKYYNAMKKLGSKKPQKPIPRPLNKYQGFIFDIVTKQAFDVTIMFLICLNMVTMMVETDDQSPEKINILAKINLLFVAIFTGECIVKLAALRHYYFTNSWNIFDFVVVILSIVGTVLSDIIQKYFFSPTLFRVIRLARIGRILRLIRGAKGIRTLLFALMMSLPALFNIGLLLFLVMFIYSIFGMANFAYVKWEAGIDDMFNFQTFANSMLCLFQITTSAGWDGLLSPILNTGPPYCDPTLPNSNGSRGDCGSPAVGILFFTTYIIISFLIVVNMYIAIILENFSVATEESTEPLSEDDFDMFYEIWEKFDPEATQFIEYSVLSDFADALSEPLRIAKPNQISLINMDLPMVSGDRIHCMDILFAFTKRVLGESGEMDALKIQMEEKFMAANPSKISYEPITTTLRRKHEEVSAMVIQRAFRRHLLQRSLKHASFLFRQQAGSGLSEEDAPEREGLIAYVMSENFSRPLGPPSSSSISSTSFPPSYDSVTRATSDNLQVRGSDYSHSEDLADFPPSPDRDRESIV

SMILES | IC50 (Nav 1.5) [µM] | other results
O=S1(=O)CCN(c2cc(C(F)(F)F)ccc2[C@H]2CCOc3cc(S(=O)(=O)Nc4ncc(F)cn4)ccc32)CC1 (racemic) [Example-234, (R/S)-4-(2-(1,1-dioxidothiomorpholino)-4-(trifluoromethyl)phenyl)-N-(5-fluoropyrimidin-2-yl)chroman-7-sulfonamide] | > 10 | 
O=S1(=O)CCN(c2cc(C(F)(F)F)ccc2[C@H]2CCOc3cc(S(=O)(=O)Nc4cccc(F)n4)ccc32)CC1 (racemic) [Example-235, (R/S)-4-(2-(1,1-dioxidothiomorpholino)-4-(trifluoromethyl)phenyl)-N-(6-fluoropyridin-2-yl)chroman-7-sulfonamide] | > 10 | 
O=S1(=O)CCN(c2cc(C(F)(F)F)ccc2[C@H]2CCOc3cc(S(=O)(=O)Nc4ccncn4)ccc32)CC1 (racemic) [Example-237, (R/S)-4-(2-(1,1-dioxidothiomorpholino)-4-(trifluoromethyl)phenyl)-N-(pyrimidin-4-yl)chromane-7-sulfonamide] | > 10 | 
Cn1nccc1-c1cc(C(F)(F)F)ccc1[C@@H]1CCOc2cc(S(=O)(=O)Nc3cc(F)ccn3)ccc21 [Example 3, (S&R)—N-(4-Fluoropyridin-2-yl)-4-(2-(1-methyl-1H-pyrazol-5-yl)-4-(trifluoromethyl)phenyl)chroman-7-sulfonamide] | > 10 | 
Cn1nccc1-c1cc(C(F)(F)F)ccc1[C@H]1CCOc2cc(S(=O)(=O)Nc3cc(F)ccn3)ccc21 [Example 4, (S&R)—N-(4-Fluoropyridin-2-yl)-4-(2-(1-methyl-1H-pyrazol-5-yl)-4-(trifluoromethyl)phenyl)chroman-7-sulfonamide] |  | Nav1.5 % inhibition @ 10 μM (Nav 1.5): 57%
Cn1nccc1-c1cc(C(F)(F)F)ccc1[C@@H]1CCOc2cc(S(=O)(=O)Nc3ccc(F)cn3)ccc21 [Example 5, (S&R)—N-(5-Fluoropyridin-2-yl)-4-(2-(1-methyl-1H-pyrazol-5-yl)-4-(trifluoromethyl)phenyl)chroman-7-sulfonamide] |  | Nav1.5 % inhibition @ 10 μM (Nav 1.5): 58%
Cn1nccc1-c1cc(C(F)(F)F)ccc1[C@@H]1CCOc2cc(S(=O)(=O)Nc3ccncn3)ccc21 [Example 9, (S&R)-4-(2-(1-Methyl-1H-pyrazol-5-yl)-4-(trifluoromethyl)phenyl)-N-(pyrimidin-4-yl) chroman-7-sulfonamide] | > 10 | 
Cn1nccc1-c1cc(C(F)(F)F)ccc1[C@H]1CCOc2cc(S(=O)(=O)Nc3ccncn3)ccc21 [Example 10, (S&R)-4-(2-(1-Methyl-1H-pyrazol-5-yl)-4-(trifluoromethyl)phenyl)-N-(pyrimidin-4-yl) chroman-7-sulfonamide] | > 10 | 
Cn1nccc1-c1cc(C(F)(F)F)ccc1[C@H]1CCOc2cc(S(=O)(=O)Nc3cnccn3)ccc21 [Example 12, (S&R)-4-(2-(1-Methyl-1H-pyrazol-5-yl)-4-(trifluoromethyl)phenyl)-N-(pyrazin-2-yl) chromane-7-sulfonamide] | > 10 | 
Cc1cccc(NS(=O)(=O)c2ccc3c(c2)OCC[C@@H]3c2ccc(C(F)(F)F)cc2-c2ccnn2C)n1 [Example 20, (S&R)-4-(2-(1-methyl-1H-pyrazol-5-yl)-4-(trifluoromethyl)phenyl)-N-(6-methylpyridin-2-yl)chroman-7-sulfonamide] |  | IC50 (Nav 1.7): 0.245 µM
O=S(=O)(Nc1ncc(F)cn1)c1ccc2c(c1)OCC[C@H]2c1ccc(C(F)(F)F)cc1-c1ccc(F)nc1 [Example 37, (S&R)-4-(2-(6-Fluoropyridin-3-yl)-4-(trifluoromethyl)phenyl)-N-(5-fluoropyrimidin-2-yl) chromane-7-sulfonamide] | > 10 | 
O=S(=O)(Nc1ncc(F)cn1)c1ccc2c(c1)OCC[C@@H]2c1ccc(C(F)(F)F)cc1-c1ccc(F)nc1 [Example 38, (S&R)-4-(2-(6-Fluoropyridin-3-yl)-4-(trifluoromethyl)phenyl)-N-(5-fluoropyrimidin-2-yl) chromane-7-sulfonamide] | > 10 | 
O=S(=O)(Nc1ncc(F)cn1)c1ccc2c(c1)OCC[C@H]2c1ccc(C(F)(F)F)cc1-c1ccc(F)cc1 [Example 45, (S&R)-4-(4′-Fluoro-5-(trifluoromethyl)-[1,1′-biphenyl]-2-yl)-N-(5-fluoropyrimidin-2-yl) chromane-7-sulfonamide] | > 10 | 
O=S(=O)(Nc1ncc(F)cn1)c1ccc2c(c1)OCC[C@@H]2c1ccc(C(F)(F)F)cc1-c1ccc(F)cc1 [Example 46, (S&R)-4-(4′-Fluoro-5-(trifluoromethyl)-[1,1′-biphenyl]-2-yl)-N-(5-fluoropyrimidin-2-yl) chromane-7-sulfonamide] | > 10 | 
O=S(=O)(Nc1ccncn1)c1ccc2c(c1)OCC[C@@H]2c1ccc(C(F)(F)F)cc1-c1ccc(F)cc1 [Example 48, (S&R)-4-(4′-Fluoro-5-(trifluoromethyl)-[1,1′-biphenyl]-2-yl)-N-(pyrimidin-4-yl)chromane-7-sulfonamide] | > 10 | 
O=S(=O)(Nc1cccc(F)n1)c1ccc2c(c1)OCC[C@H]2c1ccc(C(F)(F)F)cc1-c1ccc(F)cc1 [Example 49, (S&R)-4-(4′-Fluoro-5-(trifluoromethyl)-[, 1′-biphenyl]-2-yl)-N-(6-fluoropyridin-2-yl) chromane-7-sulfonamide] | > 10 | 

SMILES | IC50 (Nav 1.5) [µM] | other results
O=S(=O)(Nc1cccc(F)n1)c1ccc2c(c1)OCC[C@@H]2c1ccc(C(F)(F)F)cc1-c1ccc(F)cc1 [Example 50, (S&R)-4-(4′-Fluoro-5-(trifluoromethyl)-[, 1′-biphenyl]-2-yl)-N-(6-fluoropyridin-2-yl) chromane-7-sulfonamide] |  | Nav1.5 % inhibition @ 10 μM (Nav 1.5): 38%
O=S(=O)(Nc1ncccn1)c1ccc2c(c1)OCC[C@H]2c1ccc(C(F)(F)F)cc1-n1ccnn1 [Example 51, (S&R)-4-(2-(1H-1,2,3-Triazol-1-yl)-4-(trifluoromethyl)phenyl)-N-(pyrimidin-2-yl)chromane-7-sulfonamide] | > 10 | 
O=S(=O)(Nc1ncccn1)c1ccc2c(c1)OCC[C@@H]2c1ccc(C(F)(F)F)cc1-n1ccnn1 [Example 52, (S&R)-4-(2-(1H-1,2,3-Triazol-1-yl)-4-(trifluoromethyl)phenyl)-N-(pyrimidin-2-yl)chromane-7-sulfonamide] | > 10 | 
O=S(=O)(Nc1ncc(F)cn1)c1ccc2c(c1)OCC[C@H]2c1ccc(C(F)(F)F)cc1-n1ccnn1 [Example 55, (S&R)-4-(2-(1H-1,2,3-Triazol-1-yl)-4-(trifluoromethyl)phenyl)-N-(5-fluoropyrimidin-2-yl) chromane-7-sulfonamide] | > 10 | 
O=S(=O)(Nc1ncc(F)cn1)c1ccc2c(c1)OCC[C@@H]2c1ccc(C(F)(F)F)cc1-n1ccnn1 [Example 56, (S&R)-4-(2-(1H-1,2,3-Triazol-1-yl)-4-(trifluoromethyl)phenyl)-N-(5-fluoropyrimidin-2-yl) chromane-7-sulfonamide] | > 10 | 
O=S(=O)(Nc1ccncn1)c1ccc2c(c1)OCC[C@H]2c1ccc(C(F)(F)F)cc1-n1ccnn1 [Example 57, (S&R)-4-(2-(1H-1,2,3-Triazol-1-yl)-4-(trifluoromethyl)phenyl)-N-(pyrimidin-4-yl)chromane-7-sulfonamide] | > 10 | 
O=S(=O)(Nc1ccncn1)c1ccc2c(c1)OCC[C@@H]2c1ccc(C(F)(F)F)cc1-n1ccnn1 [Example 58, (S&R)-4-(2-(1H-1,2,3-Triazol-1-yl)-4-(trifluoromethyl)phenyl)-N-(pyrimidin-4-yl)chromane-7-sulfonamide] | > 10 | 
O=S(=O)(Nc1cccc(F)n1)c1ccc2c(c1)OCC[C@H]2c1ccc(C(F)(F)F)cc1-n1ccnn1 [Example 59, (S&R)-4-(2-(1H-1,2,3-Triazol-1-yl)-4-(trifluoromethyl)phenyl)-N-(6-fluoropyridin-2-yl) chromane-7-sulfonamide] | > 10 | 
O=S(=O)(Nc1cccc(F)n1)c1ccc2c(c1)OCC[C@@H]2c1ccc(C(F)(F)F)cc1-n1ccnn1 [Example 60, (S&R)-4-(2-(1H-1,2,3-Triazol-1-yl)-4-(trifluoromethyl)phenyl)-N-(6-fluoropyridin-2-yl) chromane-7-sulfonamide] | > 10 | 
O=S(=O)(Nc1ncccn1)c1ccc2c(c1)OCC[C@H]2c1ccc(C(F)(F)F)cc1N1CCOCC1 [Example 118, (S&R)-4-(2-morpholino-4-(trifluoromethyl)phenyl)-N-(pyrimidin-2-yl)chroman-7-sulfonamide] | > 10 | 
O=S(=O)(Nc1ncccn1)c1ccc2c(c1)OCC[C@@H]2c1ccc(C(F)(F)F)cc1N1CCOCC1 [Example 119, (S&R)-4-(2-morpholino-4-(trifluoromethyl)phenyl)-N-(pyrimidin-2-yl)chroman-7-sulfonamide] |  | Nav1.5 % inhibition @ 10 μM (Nav 1.5): 30%
O=S(=O)(Nc1ncccn1)c1ccc2c(c1)OCC[C@H]2c1ccc(C(F)(F)F)cc1-c1ccc(F)cn1 [Example-193, (S&R)-4-(2-(5-fluoropyridin-2-yl)-4-(trifluoromethyl)phenyl)-N-(pyrimidin-2-yl)chroman-7-sulfonamide] | > 10 | 
O=S(=O)(Nc1ncccn1)c1ccc2c(c1)OCC[C@@H]2c1ccc(C(F)(F)F)cc1-c1ccc(F)cn1 [Example-194, (S&R)-4-(2-(5-fluoropyridin-2-yl)-4-(trifluoromethyl)phenyl)-N-(pyrimidin-2-yl)chroman-7-sulfonamide] |  | Nav1.5 % inhibition @ 10 μM (Nav 1.5): 65%
Cc1ccc(-c2cc(C(F)(F)F)ccc2[C@@H]2CCOc3cc(S(=O)(=O)Nc4ncccn4)ccc32)cn1 [Example-201, (S)-4-(2-(6-methylpyridin-3-yl)-4-(trifluoromethyl)phenyl)-N-(pyrimidin-2-yl)chromane-7-sulfonamide] | > 10 | 
Cc1ccc(-c2cc(C(F)(F)F)ccc2[C@H]2CCOc3cc(S(=O)(=O)Nc4ncccn4)ccc32)cn1 [Example-202, (R)-4-(2-(6-methylpyridin-3-yl)-4-(trifluoromethyl)phenyl)-N-(pyrimidin-2-yl)chroman-7-sulfonamide] | > 10 | 
O=S1(=O)CCN(c2cc(C(F)(F)F)ccc2[C@H]2CCOc3cc(S(=O)(=O)Nc4ncccn4)ccc32)CC1 [Example-233, (S&R)-4-(2-(1,1-dioxidothiomorpholino)-4-(trifluoromethyl)phenyl)-N-(pyrimidin-2-yl)chroman-7-sulfonamide] | > 10 | 
